Literature values, collected in patent publication US12565477B2, “Preparation method for chlorinated compound” (JIANGSU KANION PHARMACEUTICAL CO., LTD., priority 2020, dated 2026).
“Also recorded” adds a separate entry of the source. Like-named read-outs stand apart in the source and are kept apart here.

Legend:
[1] = human; for Percentage of administered dose: 0-144 h, after Lesinurad; for Metabolites found in humans after Lesinurad administration (in words): clinical data
[2] = Hepatocyte, Dog, in vitro
[3] = Liver microsome, Monkey, in vitro
[4] = Hepatocyte, Rat, in vitro
URAT1 = molecular target: T1, URAT1 (Homo sapiens, UniProt Q96S37)
T1 construct: URAT1 is an important kidney anion transporter located on the brush border membrane of epithelial cells of renal tubules; host or cells: kidney of treated patients (endogenous)
T1 sequence (Q96S37 1-553): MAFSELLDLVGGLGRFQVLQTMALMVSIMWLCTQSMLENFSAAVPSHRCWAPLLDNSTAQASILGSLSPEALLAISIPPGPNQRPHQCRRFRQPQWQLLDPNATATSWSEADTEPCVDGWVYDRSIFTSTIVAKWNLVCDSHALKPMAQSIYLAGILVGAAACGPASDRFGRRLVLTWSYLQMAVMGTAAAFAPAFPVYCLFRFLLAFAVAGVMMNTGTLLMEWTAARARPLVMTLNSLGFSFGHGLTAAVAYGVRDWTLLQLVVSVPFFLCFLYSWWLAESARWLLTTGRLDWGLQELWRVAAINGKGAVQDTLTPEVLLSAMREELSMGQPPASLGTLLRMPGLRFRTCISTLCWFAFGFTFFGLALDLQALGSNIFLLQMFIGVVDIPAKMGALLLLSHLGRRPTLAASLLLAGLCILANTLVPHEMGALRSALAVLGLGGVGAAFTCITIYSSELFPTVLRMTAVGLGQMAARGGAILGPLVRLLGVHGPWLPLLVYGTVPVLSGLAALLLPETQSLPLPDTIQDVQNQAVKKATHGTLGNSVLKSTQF

[5] = Hepatocyte, Monkey, in vitro
[6] = Liver microsome, Human, in vitro
[7] = Liver microsome, Dog, in vitro
[8] = Hepatocyte, Human, in vitro
[9] = Liver microsome, Rat, in vitro

Row | SMILES | Percentage of administered dose ([1]; Feces) [%] | Percentage of administered dose ([1]; Urine) [%] | Metabolites found in humans after Lesinurad administration (in words) [1] | Share of M3, M4 and Lesinurad detected (Total 100) [2] | Share of M3, M4 and Lesinurad detected (Total 100) [3] [%] | Share of M3, M4 and Lesinurad detected (Total 100) [4] | Additional effect of combined medication versus xanthine oxidase inhibitor alone (URAT1; Lesinurad 200 mg/day with XOI) | Toxic side effects (kidney-related adverse events, especially kidney stone) (URAT1; Lesinurad 400 mg/day) | Additional effect of combined medication (URAT1; Lesinurad 400 mg/day (high dose) with XOI) | Share of M3, M4 and Lesinurad detected (Total 100) [5] [%] | Share of M3, M4 and Lesinurad detected (Total 100) [6] [%] | Share of M3, M4 and Lesinurad detected (Total 100) [7] [%] | Share of M3, M4 and Lesinurad detected (Total 100) [8] [%] | Share of M3, M4 and Lesinurad detected (Total 100) [9] [%]
1 | O=C(O)CSc1nnc(Br)n1-c1ccc(C2(O)CC2)c2ccccc12 [Compound M3] | 0.3 | 12.0 | most predominant metabolites | not detected | 7.9 | not detected |  |  |  |  |  |  |  | 
2 | O=C(O)CSc1nncn1-c1ccc(C2CC2)c2ccccc12 [Compound M2] | 4.8 | 0.3 |  |  |  |  |  |  |  |  |  |  |  | 
3 | O=C(O)CSc1nnc(Br)n1-c1ccc(C2CC2)c2c1C=CC(O)C2O (stereo not drawn) [Compound M4] | 5.0 | 15.7 | specifically detected in human metabolites; also recorded: most predominant metabolites | not detected |  | not detected |  |  |  |  |  |  |  | 
4 | O=C(O)CSc1nnc(Br)n1-c1ccc(C2CC2)c2ccccc12 [Lesinurad] | 1.5 | 31.3 |  | 100% | 92.1 | 100% | not very significant | significantly increased toxic side effects | higher additional effect | 98.1 | 100 | 100 | 92.1 | 100
5 | O=C(O)CSc1nncn1-c1ccc(C2(O)CC2)c2ccccc12 [Compound M5] | 3.6 |  |  |  |  |  |  |  |  |  |  |  |  | 
